Laboratory results: patent US9895438B2, “Treatment of cancer with naltrexone” (Cancer Vaccine Institute, priority 2013, dated 2018)
“Also recorded” adds a separate entry of the source. Where two headings read alike, the source gives them in different places.

Tests used:
TLR4 [1] = target: T1, TLR4 (Homo sapiens, UniProt O00206+Q9Y6Y9); assay: TLR4 antagonist assay, HEK-293 transfectants with alkaline phosphatase reporter gene (Invivogen panel); type: cell-based; details: 1 μM naltrexone, O.D. readout (FIG. 1)
T1 construct: host or cells: HEK-293
T1 sequence (O00206 24-839, species assumed): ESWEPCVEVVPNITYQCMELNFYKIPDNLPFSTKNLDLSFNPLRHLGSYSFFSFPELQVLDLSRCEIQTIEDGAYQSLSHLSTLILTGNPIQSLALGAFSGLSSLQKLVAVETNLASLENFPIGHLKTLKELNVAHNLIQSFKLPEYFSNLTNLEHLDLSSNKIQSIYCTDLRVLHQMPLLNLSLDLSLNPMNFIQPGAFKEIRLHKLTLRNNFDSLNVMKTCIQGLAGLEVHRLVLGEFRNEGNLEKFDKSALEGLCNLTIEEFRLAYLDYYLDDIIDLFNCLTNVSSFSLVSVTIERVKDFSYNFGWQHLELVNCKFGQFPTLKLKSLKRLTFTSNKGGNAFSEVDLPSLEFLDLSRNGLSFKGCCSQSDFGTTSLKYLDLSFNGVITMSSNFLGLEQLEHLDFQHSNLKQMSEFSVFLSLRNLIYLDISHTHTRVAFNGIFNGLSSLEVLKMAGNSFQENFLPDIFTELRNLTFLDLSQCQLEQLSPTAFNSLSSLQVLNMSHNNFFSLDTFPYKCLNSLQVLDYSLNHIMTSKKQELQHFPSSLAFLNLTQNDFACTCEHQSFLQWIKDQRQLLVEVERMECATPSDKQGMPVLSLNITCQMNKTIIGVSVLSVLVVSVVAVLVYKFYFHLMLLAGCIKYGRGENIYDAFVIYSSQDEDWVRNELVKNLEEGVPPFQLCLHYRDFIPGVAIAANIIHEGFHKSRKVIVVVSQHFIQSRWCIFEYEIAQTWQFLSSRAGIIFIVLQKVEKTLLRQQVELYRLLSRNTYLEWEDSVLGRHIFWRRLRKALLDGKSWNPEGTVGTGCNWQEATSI
T1 sequence (Q9Y6Y9 17-160 limits assumed, species assumed): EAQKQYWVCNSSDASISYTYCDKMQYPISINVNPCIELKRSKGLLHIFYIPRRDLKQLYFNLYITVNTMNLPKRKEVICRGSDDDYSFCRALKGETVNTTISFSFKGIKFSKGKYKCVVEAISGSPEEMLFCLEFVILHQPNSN
Method: (§1) Samples and controls were tested in duplicate on recombinant HEK-293 cell lines expressing the various TLR and NOD receptors with an alkaline phosphatase reporter gene. Cells were incubated with or without 1 μM naltrexone in an antagonist assay using the Invivogen panel of TLR and NOD signalling transfectants. Results shown are for TLR4 and TLR9, TLR activation results are given as optical density (O.D.) values, which have been confirmed in three independent experiments.
(§2) Low dose naltrexone (LDN) was tested in agonist and antagonist assays on a panel of TLR and NOD transfectants (TLR2, TLR3, TLR4, TLR5, TLR7, TLR8, TLR9, NOD1, NOD2). Screening assays were performed by Cayla-Invivogen (Toulouse, France).

metastatic melanoma = assay: Patient with chemotherapy-resistant metastatic melanoma treated with LDN
TLR9 = target: T2, TLR9 (Homo sapiens, UniProt Q9NR96); assay: TLR9 antagonist assay, HEK-293 transfectants with alkaline phosphatase reporter gene (Invivogen panel); type: cell-based
T2 construct: host or cells: HEK-293
T2 sequence (Q9NR96 26-1032): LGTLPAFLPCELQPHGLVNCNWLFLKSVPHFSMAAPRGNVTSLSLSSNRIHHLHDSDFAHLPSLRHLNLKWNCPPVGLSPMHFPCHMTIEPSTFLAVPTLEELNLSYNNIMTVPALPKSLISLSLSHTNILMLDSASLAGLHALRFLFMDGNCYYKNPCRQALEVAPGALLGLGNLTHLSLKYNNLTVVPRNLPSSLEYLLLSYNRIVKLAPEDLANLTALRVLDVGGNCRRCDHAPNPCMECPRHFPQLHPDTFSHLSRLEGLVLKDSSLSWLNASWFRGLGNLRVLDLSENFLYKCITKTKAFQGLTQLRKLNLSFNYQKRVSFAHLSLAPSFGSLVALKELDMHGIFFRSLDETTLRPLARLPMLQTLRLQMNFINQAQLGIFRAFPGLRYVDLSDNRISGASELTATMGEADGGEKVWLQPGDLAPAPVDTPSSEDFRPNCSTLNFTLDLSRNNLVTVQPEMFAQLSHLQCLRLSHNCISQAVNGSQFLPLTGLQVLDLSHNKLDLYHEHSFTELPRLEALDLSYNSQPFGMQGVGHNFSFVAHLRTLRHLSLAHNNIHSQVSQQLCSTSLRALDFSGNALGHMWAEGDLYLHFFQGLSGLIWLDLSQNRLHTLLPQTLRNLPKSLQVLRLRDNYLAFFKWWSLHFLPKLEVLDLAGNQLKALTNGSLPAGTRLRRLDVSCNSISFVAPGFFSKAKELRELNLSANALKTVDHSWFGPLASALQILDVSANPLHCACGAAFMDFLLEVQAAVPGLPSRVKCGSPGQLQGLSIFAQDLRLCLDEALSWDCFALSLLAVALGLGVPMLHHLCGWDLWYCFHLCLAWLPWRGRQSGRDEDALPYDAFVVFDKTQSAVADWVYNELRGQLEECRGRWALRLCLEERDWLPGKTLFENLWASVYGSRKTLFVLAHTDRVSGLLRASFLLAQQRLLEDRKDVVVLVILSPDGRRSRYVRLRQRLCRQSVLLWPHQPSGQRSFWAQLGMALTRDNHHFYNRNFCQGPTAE
Method: as §1, §2

[2] = tested on: hormone-refractory prostate cancer; assay: Patient with hormone-refractory prostate cancer treated with Mycobacterium vaccae plus LDN; type: in vivo, human; details: one patient, LDN added to Mycobacterium vaccae treatment
TLR4 [3] = target: T1, TLR4; details: Hutchinson et al. (2008); cited from earlier work
[4] = tested on: TLR2, TLR3, TLR4, TLR5, TLR7, TLR8, TLR9, NOD1, NOD2; assay: Agonist assays on panel of TLR and NOD transfectants; type: cell-based; details: TLR2, 3, 4, 5, 7, 8, 9, NOD1, NOD2
Method: as §1, §2

O=C1CC[C@@]2(O)[C@H]3Cc4ccc(O)c5c4[C@@]2(CCN3CC2CC2)[C@H]1O5 [LDN, morphinan-6-one,17-(cyclopropylmethyl)-4,5-epoxy-3,14-dihydroxy-(5α)]
antagonism of TLR4 (TLR4 [1]): mild antagonistic effect; also recorded: mild antagonist effect
time to development of vitiligo (metastatic melanoma; after administration of low dose naltrexone): ≤ 48 h
development of vitiligo (sign of activated cytotoxic T cells against melanoma antigens) (metastatic melanoma; one patient previously given vaccine and radiotherapy, LDN as supportive treatment prior to more radiotherapy): marked vitiligo
antagonism of TLR9 (recognition of CpG DNA) (TLR9; antagonist assay, 1 μM naltrexone, O.D. readout (FIG. 1)): striking antagonistic effect; also recorded: inhibited recognition of CpG DNA
IC50 (TLR9; titration, TLR9-transfected cell line, naltrexone diluted in PBS or H2O (FIG. 2), read-out: IC50 for inhibition of TLR9): ~50 µM
prostate-specific antigen levels [2]: drop in prostate-specific antigen levels
antagonism of TLR4 (TLR4 [3]): weakly antagonise TLR4
stimulation of signalling (agonism) through TLR and NOD receptors [4]: did not stimulate signalling through any of the receptors tested
